Test systems include COLO 205; HCC 2998; OVCAR-8; T47D; OVCAR-5; UACC-257; HCT-15; OVCAR-3; NCI-H522; U-251; MDA-N; SK-MEL-5; UO-31; HOP-62; SN12C; A498; 786-0; KM-20L2; SNB-75; NCI-H460.
Common to all, as to assay: growth of human tumour cells (NCI), 48 h

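These data come from cells grown in 96-well plates and exposed to compound for 48 hours at five concentrations. GI50 marks 50% less growth.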 Active and inactive are the calls of the source. No stated cut-off is given here; in the data, active = GI50 up to about 1.1 µM and inactive = higher.

On to `CN(Cc1ccccc1)/C(=N\C#N)N(Cc1ccccc1)Cc1ccccc1`, for which the GI50 is 19 µM (inactive) in the assay with COLO 205; 34.8 µM (inactive) in the assay with HCC 2998; 29.9 µM (inactive) in the assay with OVCAR-8; 27.7 µM (inactive) with T47D; 21.1 µM (inactive) in the assay on OVCAR-5; 21.6 µM (inactive) in the assay on UACC-257. Besides, the GI50 in the assay with HCT-15 was 26.6 µM; in the assay with OVCAR-3, 18 µM (inactive); in the assay on NCI-H522, 18.1 µM (inactive); in the assay on U-251, 28.2 µM (inactive); in the assay on MDA-N, 17.9 µM (inactive); in the assay on SK-MEL-5, 18.4 µM (inactive). The GI50 with UO-31 is 26.5 µM (inactive); in the assay with HOP-62, 27.7 µM (inactive); with SN12C, 34.7 µM (inactive); in the assay with A498 it was 44.8 µM (inactive); in the assay on 786-0 it was 31.5 µM (inactive); in the assay with KM-20L2, 19.6 µM (inactive). Moreover, the GI50 in the assay with SNB-75 is 30.5 µM (inactive); in the assay with NCI-H460, 27.6 µM (inactive).
With `COc1cc(C)c(O)c(C(=O)O)c1`, the GI50 was > 100 µM (inactive) in the assay with COLO 205; > 100 µM (inactive) with HCC 2998; > 100 µM (inactive) with OVCAR-8; > 100 µM (inactive) in the assay with OVCAR-5; > 100 µM (inactive) in the assay on UACC-257; above 100 µM in the assay on HCT-15. Also, the GI50 with OVCAR-3, in the assay with NCI-H522, with U-251, in the assay on SK-MEL-5, in the assay on UO-31 and in the assay on HOP-62 was > 100 µM (inactive) each time. Besides, the GI50 in the assay on SN12C, in the assay on A498, in the assay on 786-0, with KM-20L2, with SNB-75 and with NCI-H460 was > 100 µM (inactive) throughout.
For `Cc1cc(C)nc(NS(=O)(=O)c2ccc(NC(=O)c3cccc4c(=O)c5ccccc5[nH]c34)cc2)n1`, the GI50 in the assay with COLO 205 is 18.3 µM (inactive); with HCC 2998 it was 16.7 µM (inactive); in the assay on OVCAR-8, 19.2 µM (inactive); with OVCAR-5, > 10 µM (inactive); in the assay with UACC-257, 17.9 µM (inactive); with HCT-15, 19.7 µM. For the same compound, the GI50 was 19.5 µM (inactive) in the assay on OVCAR-3; 13.1 µM (inactive) in the assay with NCI-H522; 16.5 µM (inactive) in the assay on U-251; 11.7 µM (inactive) with SK-MEL-5; 22.2 µM (inactive) with UO-31; 20.1 µM (inactive) with HOP-62. In addition, the GI50 in the assay with SN12C was 15.9 µM (inactive); with A498, 18.2 µM (inactive); in the assay with 786-0, 18.7 µM (inactive); in the assay with KM-20L2 it was 19.5 µM (inactive); in the assay with SNB-75, 18.5 µM (inactive); with NCI-H460, 17 µM (inactive).
With `CC(N)C(C)c1ccccc1` (centres undefined), the GI50 with COLO 205 was > 100 µM (inactive); with HCC 2998 it was > 100 µM (inactive); with OVCAR-8, > 100 µM (inactive); with OVCAR-5, > 100 µM (inactive); with UACC-257 it was > 100 µM (inactive); in the assay with HCT-15, above 100 µM. In addition, the GI50 in the assay on OVCAR-3, with NCI-H522, with U-251, in the assay with SK-MEL-5, with UO-31 and with HOP-62 was > 100 µM (inactive) throughout. The GI50 in the assay with SN12C, with A498, in the assay with 786-0, with KM-20L2, with SNB-75 and in the assay with NCI-H460 was > 100 µM (inactive) throughout.

The values above are taken from ChEMBL document CHEMBL1201862, “PubChem BioAssay data set” (2004).
